Peptide text beside a SMILES is read from it.
What was measured:
[1] = Stability of the peptide in culture medium conditioned by human fibroblasts and keratinocytes (released degradation enzymes), HPLC; type: in vitro ADME; settings: medium from human fibroblasts and keratinocytes cultivated 24 hours at 37° C.; after 24 hours with peptide
Protocol: Human fibroblasts and keratinocytes were cultivated during 24 hours at 37° C. and 5% of CO2. For this period, the cells will release many degradation enzymes in the culture medium. Thereafter, the culture medium is removed to be put in the presence of the peptide.

[2] = test system: fibroblasts and keratinocytes in culture; assay: Peptide applied to fibroblasts and keratinocytes in culture, HPLC analysis of the culture medium; type: in vitro ADME, human; settings: in a few hours
Protocol: A test is carried out by applying the peptide to the fibroblasts and to the keratinocytes in culture.
This assumption is then consolidated by the tests of effectiveness exposed in the following examples.

[3] = Stability of the peptide by HPLC at various temperatures; type: physicochemical; settings: 10^-4 M; after 8 days at 25° C.
Protocol: The Peptide Lys-Leu-Asp-Ala-Pro-Thr was analyzed with a concentration of 10^-4 M by HPLC on a column of the C18 type, and with a linear gradient water/TFA 0.1%-acetonitril/TFA 0.1%.

keratinocytes = assay: Adhesion of keratinocytes to pre-treated 96 wells micro-plates (MTT, OD 560 nm against 630 nm); type: cell-based; settings: Condition C: wells pre-treated 12 hours at 50 ppm; 3 hours contact with keratinocytes
Protocol: The study is carried out in 96 wells micro-plates on keratinocytes cultured in an incubator at 37° C. and 5% of CO2.
The wells of these plates are pre-treated, for 12 hours, in different ways; four conditions have been realized:
Condition A: negative control, not containing peptide;
Condition B: incubated with various peptides, made up from 3 to 25 amino acids, with a concentration of 35 ppm;
Condition C: incubated with fibronectin with a concentration of 50 ppm;
Condition D: incubated with the peptide of sequence Lys-Leu-Asp-Ala-Pro-Thr to a concentration of 5 ppm.
After 3 hours of contact with the keratinocytes, the wells are completely filled with medium, hermetically closed, turned over and agitated on a three-dimensional agitator during 20 minutes. Then the plates are emptied and the remaining medium is aspired. Then, 100 μl of MTT with 1 mg/ml are added by wells and are left for 3 hours at 37° C. and 5% CO2. The solution is finally withdrawn, then 100 μl of DMSO is added. A reading of the OD is made at 560 nm against 630 nm.
The OD is proportional to the quantity of viable cells, i.e. which adhered to the micro-plates.

| Molecule | degradation of peptide in conditioned culture medium [1] | peptide concentration in culture medium [2] | peptide degradation (HPLC) [3] | O.D. (adhered viable cells) (keratinocytes) |
| --- | --- | --- | --- | --- |
| CC(C)C[C@H](NC(=O)[C@@H](N)CCCCN)C(=O)N[C@@H](CC(=O)O)C(=O)N[C@@H](C)C(=O)N1CCC[C@H]1C(=O)N[C@H](C(=O)O)[C@@H](C)O [Lys-Leu-Asp-Ala-Pro-Thr] (H-KLDAPT-OH; N-terminus and C-terminus assumed) | almost no degradation | decreases quickly | no peptide degradation |  |
| fibronectin |  |  |  | 0.770 |
